Experimental data as given in article PMC6283615, “Anilinoquinoline based inhibitors of trypanosomatid proliferation” (PLoS Neglected Tropical Diseases, 2018).
Values after ≈ are worked out from the molar mass of the structure shown.

Columns and labels:
L. major amastigote = assay: L. major intracellular amastigote luciferase assay in RAW 264.7 macrophages; format: cell-based, Leishmania major; conditions: intracellular amastigotes in RAW 264.7 macrophages, 96 h
Method: Amastigote assays were performed using pLEXSY-hyg2-luciferase L. major transfected promastigotes and the murine RAW 264.7 macrophage cell line (ATCC TIB-71, Manassas, VA). Briefly, luciferase-expressing promastigotes of each Leishmania species were generated by adding a luciferase encoding region to the pLEXSY-hyg2 vector (Jena Biosciences, Germany) as described. One μg of the linearized pLEXSY-hyg2-luciferase vector were electroporated (480 V, 13 Ω, and 500 μF) into 4×10^7 Leishmania promastigotes. Selection for stable promastigote transfectants was carried out using hygromycin B (100 μg/mL). RAW 264.7 macrophages were maintained in growth medium (Dulbecco’s Modified Eagle’s Medium supplemented with heat-inactivated 10% FBS (Life Technologies)). Cells were harvested and resuspended in growth medium at 2.0×10^5 cells/mL, and 1×10^4 cells/well were dispensed (final volume 50 μL) in each well of a 384 well tissue-culture treated white plate using a EVO Freedom liquid handling system (Tecan, Durham, NC). Plates were incubated at 37°C in 5% CO2 for 24 h after which the culture medium was removed from each well using the EVO Freedom liquid handler. Metacyclic phase pLEXSY-hyg2-luciferase-Leishmania promastigotes (MOI = 1:10 L. major) were added to each assay plate well and allowed to infect the RAW 264.7 macrophages. After an overnight incubation, the growth medium was aspirated and each well was washed three times with 40 μL of fresh growth medium to remove non-internalized promastigotes. After the third wash, 69.2 μL of growth medium was added to each well. Compound dilutions (final concentration ranges 0.5–10,000 ng/mL) were generated and dispensed using the liquid handling system. Compound treated plates were incubated at 37°C in 5% CO2 for 96 h. After incubation, 7.5 μL of a luciferin solution (Caliper Life Science, Waltham, MA) diluted to 150 μg/mL was added to each well, and the plates were incubated for 30 min at 37°C in the dark. Data were captured using an Infinite M200 plate reader (Tecan). EC50s were generated for each concentration response test using GraphPad Prism software 6.0.

LogD7.4 = format: physicochemical; conditions: pH 7.4
HepG2 cells = assay: Drug toxicity to HepG2 cells (MTT, 48 h); format: cell-based, human; conditions: tested concentration ranges based on compound solubility
Method: HepG2 cells were cultured in complete Minimal Essential Medium prepared by supplementing MEM with 0.19% sodium bicarbonate, 10% heat inactivated FBS, 2 mM L-glutamine, 0.1 mM MEM non-essential amino, 0.009 mg/mL insulin, 1.76 mg/mL bovine serum albumin, 20 units/mL penicillin–streptomycin, and 0.05 mg/mL gentamycin. HepG2 cells cultured in complete MEM were first washed with 1× Hank’s Balanced Salt Solution (Invitrogen #14175095), trypsinized using a 0.25% trypsin/EDTA solution, assessed for viability using trypan blue, and resuspended at 250,000 cells/mL. Using a Tecan EVO Freedom robot, 38.3 μL of cell suspension were added to each well of clear, cell culture-treated 384-well microtiter plates for a final concentration of 9570 liver cells per well, and plated cells were incubated overnight in 5% CO2 at 37°C. Drug plates were prepared with the Tecan EVO Freedom using sterile 96 well plates containing twelve duplicate 1.6-fold serial dilutions of each test compound suspended in DMSO. 4.25 μL of diluted test compound was then added to the 38.3 μL of media in each well providing a […] final dilution of compound. Compounds were tested from a range of 57 ng/mL to 10,000 ng/mL for all assays. Mefloquine was used as a plate control for all assays with a concentration ranging from 113 ng/mL to 20,000 ng/mL. After a 48 h incubation period, 8 μL of a 1.5 mg/mL solution of MTT diluted in complete MEM media was added to each well. All plates were subsequently incubated in the dark for 1 h at room temperature. After incubation, the media and drugs in each well was removed by shaking the plate over sink, and the plates were left to dry in a fume hood for 15 mins. Next, 30 μL of isopropanol acidified by addition of HCl at a final concentration of 0.36% was added to dissolve the formazan dye crystals created by reduction of MTT. Plates are put on a 3-D rotator for 15–30 mins. Absorbance was determined in all wells using a Tecan iControl 1.6 Infinite plate reader.

NIH/3T3 cells = assay: Drug toxicity to 3T3 cells (Alamar Blue, 96 h); format: cell-based
Method: In a 96-well plate, 5×10^4 NIH/3T3 (ATCC CRL-1658) cells (purchased from ATCC) in DMEM without phenol red supplemented with 2% FBS were added to each well. Cells were incubated for 2 h to allow for attachment. Compounds were added in triplicates at 200 μM and in serial dilutions 1:2 and incubated at 37°C, 5% CO2 for 96 h. […] Following incubation, 10 μL of Alamar Blue (ThermoFisher) were added to each well and cells incubated at 37°C, 5% CO2 for 4 h. Absorbance was read at 590–595 nm.

[1] = Rat hepatocyte intrinsic clearance; format: in vitro ADME
[2] = system: T. b. brucei (strain 427); assay: T. b. brucei proliferation assay (PrestoBlue, 48 h); format: cell-based, Trypanosoma brucei brucei
Method: The assay was performed following a previously reported procedure. Briefly, in a 96-well plate, compounds were added in triplicates at 50 μM and in serial dilutions 1:2 in HMI-9 medium. To each well, 100 μL of 2.5×10^3 T. b. brucei (strain 427, received as a gift from Dr. C. C. Wang at UCSF) in HMI-9 medium was were added and incubated at 37°C, 5% CO2 for 48 h. Following incubation, 20 μL of PrestoBlue were added to each well and incubated for additional 4 h. Fluorescence was read at 530 nm excitation and 590 nm emission.

[3] = system: T. cruzi amastigote (Tulahuen strain expressing β-galactosidase); assay: Intracellular T. cruzi assay in 3T3 cells (beta-galactosidase, 96 h); format: cell-based, Trypanosoma cruzi; conditions: intracellular in 3T3 cells, 96 h; read-out: T. cruzi amastigote EC50
Method: In a 96-well plate, 5×10^4 3T3 cells in DMEM without phenol red supplemented with 2% FBS were added to each well. Cells were incubated for 2 h to allow for attachment. Compounds were added in triplicates at 50 μM and in serial dilutions 1:2. To each well, 5×10^4 T. cruzi trypomastigotes (Tulahuen strain expressing β-galactosidase) were added and incubated at 37°C, 5% CO2 for 96 h. Following incubation, 50 μL of 500 μM chlorophenol Red-β-D-galactopyranoside (CPRG) in phosphate-buffered saline with 0.5% NP40 was added to each well and incubated at 37°C, 5% CO2 for 4 h. Absorbance was read at 590–595 nm.

Aqueous solubility = format: physicochemical
[4] = Human plasma protein binding; format: in vitro ADME
[5] = Human liver microsome intrinsic clearance; format: in vitro ADME

Row | Structure (SMILES) | EC50 (L. major amastigote) [µM] | LogD7.4 (LogD7.4) | HepG2 TC50 (HepG2 cells) [µM] | 3T3 TC50 (NIH/3T3 cells) [µM] | Rat Hepatocyte CLint [1] [μL/min/10^6 cells] | EC50 [2] [µM] | EC50 [3] [µM] | solubility (Aqueous solubility) [µM] | Human PPB [4] [%] | Human Liver Microsome CLint [5] [µL/min/mg]
1 | Cc1cnc(Nc2ccc3c(Nc4cnccn4)ccnc3c2)s1 [NEU-2149] | 5.3 | 3.7 | 5 | > 50 | > 300 | 2.3 | > 50 | 1 (≈ 0.334 µg/mL) | 96 | 54
2 | Cn1cc(Nc2ccc3c(Nc4cnccn4)ccnc3c2)cn1 [NEU-2143] | 28 | 1.9 | 29 | > 50 | 66 | 14 | > 50 | – | 63 | 10
3 | Cc1cc(Nc2ccc3c(Nc4cnccn4)ccnc3c2)sn1 [NEU-2148] | 4.7 | 3.5 | 36 | > 100 | 9 | 7.6 | > 50 | 2 (≈ 0.669 µg/mL) | – | 28
4 | COc1ccc(Nc2ccnc3cc(Nc4ccnc(N5CCN(C)CC5)n4)ccc23)cc1Cl [NEU-2093] | 4.6 | – | 4.7 | 15 | 2.3 | 0.34 | 8.1 | – | – | 45
5 | Cc1n[nH]c(C)c1Nc1ccc2c(Nc3cnccn3)ccnc2c1 [NEU-2146] | 27 | 1.8 | 40 | > 100 | 120 | 17 | > 50 | – | 68 | 8
6 | Cc1nnc(Nc2ccnc3cc(-c4ccc(S(=O)(=O)N5CCN(C)CC5)cc4)ccc23)nc1C [NEU-1028] | 4 | 3.4 | 6.4 | > 100 | – | > 50 | > 50 | 1.5 (≈ 0.734 µg/mL) | 93 | –
7 | c1coc(-c2ccc3c(Nc4cnccn4)ccnc3c2)c1 [NEU-2131] | 35 | 3.8 | 53 | > 100 | – | 4.8 | 4.7 | 6 (≈ 1.73 µg/mL) | 98 | 160
8 | CN1CCN(S(=O)(=O)c2ccc(-c3ccc4c(Nc5ncc(Cl)cn5)ccnc4c3)cc2)CC1 [NEU-1025] | 8.7 | 4.1 | 31 | 11 | – | 1.5 | 8.8 | 4.8 (≈ 2.38 µg/mL) | 99 | –
9 | Cn1cc(-c2ccc3c(Nc4cnccn4)ccnc3c2)cn1 [NEU-2129] | 33 | 2.9 | 40 | 37 | 290 | 3.3 | 2.4 | 4 (≈ 1.21 µg/mL) | – | 25
10 | CN1CCN(S(=O)(=O)c2ccc(-c3ccc4c(Nc5cccnc5)ccnc4c3)cc2)CC1 [NEU-1019] | 22 | 2 | 36 | > 100 | – | 5.4 | > 50 | 175 (≈ 80.4 µg/mL) | 85 | –
11 | Cc1cc(Nc2ccnc3cc(-c4ccc(S(=O)(=O)N5CCN(C)CC5)cc4)ccc23)sn1 [NEU-1023] | 8.4 | 4.2 | 35 | > 100 | – | 0.6 | 25 | < 1 | 99 | –
12 | CN1CCN(S(=O)(=O)c2ccc(-c3ccc4c(Nc5ccc6[nH]nnc6c5)ccnc4c3)cc2)CC1 [NEU-1018] | 17 | 3.4 | 28 | > 100 | – | > 50 | > 50 | < 1 | 98 | –
